The text below walks through data of PubChem BioAssay AID330 (DTP/NCI, 2004).

Several values for one entry are separate records, joined by “and”; a condition that tells them apart may be missing. Identical values can stand only once. Inconclusive results and toxic doses are left out.

The experiment deals with P388 leukemia ip, CD2F1 mice, survival T/C. The experiment in a line: NCI In Vivo Anticancer Drug Screen. Data for tumor model P388 Leukemia (intraperitoneal) in CD2F1 (CDF1) mice. The following applies: endpoint: median survival time, higher = longer survival. The method in brief:
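Mice carrying the transplanted tumor received test compound or vehicle. Survival was recorded in each group, and the value is the treated-group measurement divided by that of the vehicle-treated control group.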

Setting [1] is: dose: 25.0 mg/kg/injection, schedule: Q01DX009 (ip), vehicle: saline.
The mark [2] stands for this setting: dose: 50.0 mg/kg/injection, schedule: Q01DX009 (ip), vehicle: saline.
Where [3] appears, read: dose: 100.0 mg/kg/injection, schedule: Q01DX009 (ip), vehicle: saline with Tween-80.
Setting [4] is: dose: 100.0 mg/kg/injection, schedule: Q01DX009 (ip), vehicle: saline.
[5] abbreviates: dose: 50.0 mg/kg/injection, schedule: Q01DX005 (ip), vehicle: saline with Tween-80.
Setting [6] is: dose: 100.0 mg/kg/injection, schedule: Q01DX005 (ip), vehicle: saline with Tween-80.
[7] abbreviates: dose: 200.0 mg/kg/injection, schedule: Q01DX005 (ip), vehicle: saline with Tween-80.
Setting [8] is: dose: 50.0 mg/kg/injection, schedule: Q01DX005 (ip), vehicle: saline.
The mark [9] stands for this setting: dose: 100.0 mg/kg/injection, schedule: Q01DX005 (ip), vehicle: saline.

Take `CCOP(=S)(N1CC1(C)C)N1CC1(C)C` (stereo not given): the T/C is, setting by setting: under setting [1], 109 % of control; under setting [2], 109 % of control; under setting [3], 154 % of control; under setting [4], 109 % of control; (dose: 100.0 mg/kg/injection, schedule: Q04DX003 (ip), vehicle: saline with Tween-80) 109 % of control; (dose: 264.0 mg/kg/injection, schedule: Q04DX003 (ip), vehicle: saline with Tween-80) 172 % of control. For the same compound, the T/C (dose: 400.0 mg/kg/injection, schedule: Q04DX003 (ip), vehicle: saline with Tween-80) was 168 % of control and 204 % of control.
For `Nc1cc(Cl)ccc1C(=O)c1ccccc1Cl`, the T/C (dose: 60.0 mg/kg/injection, schedule: Q01DX005 (ip), vehicle: saline with Tween-80) was 102 % of control; the T/C (dose: 120.0 mg/kg/injection, schedule: Q01DX005 (ip), vehicle: saline with Tween-80) was 100 % of control; the T/C (dose: 240.0 mg/kg/injection, schedule: Q01DX005 (ip), vehicle: saline with Tween-80) is 93 % of control.
As for `COc1ccc(C(CN2CCOCC2)C(C)=O)cc1OC` (stereo not given), the T/C (dose: 60.0 mg/kg/injection, schedule: Q01DX005 (ip), vehicle: saline) is 101 % of control; the T/C (dose: 120.0 mg/kg/injection, schedule: Q01DX005 (ip), vehicle: saline) is 101 % of control; the T/C (dose: 240.0 mg/kg/injection, schedule: Q01DX005 (ip), vehicle: saline) was 101 % of control.
With `O=C1CN(CCN2CC(=O)N(CN3CCOCC3)C(=O)C2)CC(=O)N1CN1CCOCC1`, the T/C (dose: 12.5 mg/kg/injection, schedule: Q01DX005 (ip), vehicle: water) was 108 % of control and 111 % of control and 119 % of control.
For `COc1cc(/C=N/N2CC(=O)N(c3ccccc3)CC2=O)cc(OC)c1`, the T/C by setting is: (dose: 6.25 mg/kg/injection, schedule: Q01DX005 (ip), vehicle: saline with Tween-80) 97 % of control; (dose: 12.5 mg/kg/injection, schedule: Q01DX005 (ip), vehicle: saline with Tween-80) 100 % of control; (dose: 25.0 mg/kg/injection, schedule: Q01DX005 (ip), vehicle: saline with Tween-80) 100 % of control.
Turning to `O=C1OCCOCCOCCOCCOC(=O)c2cccc1n2`, the T/C (dose: 100.0 mg/kg/injection, schedule: Q04DX003 (ip), vehicle: Klucel (hydroxypropylcellulose) (HPC)) is 105 % of control; the T/C (dose: 200.0 mg/kg/injection, schedule: Q04DX003 (ip), vehicle: Klucel (hydroxypropylcellulose) (HPC)) is 104 % of control; the T/C (dose: 400.0 mg/kg/injection, schedule: Q04DX003 (ip), vehicle: Klucel (hydroxypropylcellulose) (HPC)) is 102 % of control.
For `CNc1cc(=O)[nH]c(-c2ccccc2)n1`, the T/C is 89 % of control (dose: 45.0 mg/kg/injection, schedule: Q01DX009 (ip), vehicle: saline with Tween-80); 97 % of control (dose: 90.0 mg/kg/injection, schedule: Q01DX009 (ip), vehicle: saline with Tween-80); 105 % of control (dose: 180.0 mg/kg/injection, schedule: Q01DX009 (ip), vehicle: saline with Tween-80).
In the case of `O=C1C(N=Nc2ccccc2)C(O)N(c2ccc(Cl)cc2)C(=S)N1c1cccc(Cl)c1Cl` (stereo not given), the T/C is 100 % of control (dose: 100.0 mg/kg/injection, schedule: Q04DX002 (ip), vehicle: Klucel (hydroxypropylcellulose) (HPC)); 100 % of control (dose: 200.0 mg/kg/injection, schedule: Q04DX002 (ip), vehicle: Klucel (hydroxypropylcellulose) (HPC)); 99 % of control (dose: 400.0 mg/kg/injection, schedule: Q04DX002 (ip), vehicle: Klucel (hydroxypropylcellulose) (HPC)).
For `O/N=C1/C(=N/O)N(c2ccccc2)CCN1c1ccccc1`, the T/C is, setting by setting: under setting [5], 99 % of control; under setting [6], 100 % of control; under setting [7], 92 % of control.
The corresponding values for `Cc1ccc(-c2nc3ccccc3c(=O)n2/N=C/c2ccc(O)cc2)cc1` are 100 % of control, 99 % of control and 89 % of control.
With `CN(NC(=O)C(=O)NCc1ccco1)C(=O)Nc1ccc(Cl)cc1`, the T/C is, setting by setting: (dose: 50.0 mg/kg/injection, schedule: Q01DX009 (ip), vehicle: saline with Tween-80) 103 % of control; under setting [3], 100 % of control; (dose: 200.0 mg/kg/injection, schedule: Q01DX009 (ip), vehicle: saline with Tween-80) 92 % of control.
In the case of `O=C(NC(Cc1ccc(Br)cc1)C(=O)O)c1cccc(Cl)c1` (stereo not given), the T/C by setting is: under setting [8], 100 % of control; under setting [9], 101 % of control.
Consider `CCO/C(C)=[N+](/[O-])S(=O)(=O)c1c(C)cc(C)cc1C`, for which the T/C is 103 % of control (dose: 100.0 mg/kg/injection, schedule: Q01DX001 (ip), vehicle: saline); 100 % of control (dose: 200.0 mg/kg/injection, schedule: Q01DX001 (ip), vehicle: saline); 104 % of control (dose: 400.0 mg/kg/injection, schedule: Q01DX001 (ip), vehicle: saline).
On to `O=C(Nc1ccc(Cl)cc1)OC1CCS(=O)(=O)C1` (stereo not given), for which the T/C runs as follows: (dose: 100.0 mg/kg/injection, schedule: Q01DX009 (ip), vehicle: Klucel (hydroxypropylcellulose) (HPC)) 100 % of control; (dose: 200.0 mg/kg/injection, schedule: Q01DX009 (ip), vehicle: Klucel (hydroxypropylcellulose) (HPC)) 89 % of control.
In the case of `O=C(/C=C/c1ccccc1)c1c2ccccc2cc2ccccc12`, the T/C was 107 % of control (dose: 100.0 mg/kg/injection, schedule: Q01DX001 (ip), vehicle: saline with Tween-80); 100 % of control (dose: 200.0 mg/kg/injection, schedule: Q01DX001 (ip), vehicle: saline with Tween-80); 91 % of control (dose: 400.0 mg/kg/injection, schedule: Q01DX001 (ip), vehicle: saline with Tween-80).
Regarding `c1nnc2c3c4c(sc3ncn12)CCCC4`, the T/C is, setting by setting: under setting [5], 97 % of control; under setting [6], 91 % of control.
As to `N#C/C(=C\c1ccccc1)C(=O)Nc1ccccc1`, the T/C is 99 % of control (dose: 6.25 mg/kg/injection, schedule: Q01DX009 (ip), vehicle: suspension in saline); 100 % of control (dose: 12.5 mg/kg/injection, schedule: Q01DX009 (ip), vehicle: suspension in saline); 99 % of control (dose: 25.0 mg/kg/injection, schedule: Q01DX009 (ip), vehicle: suspension in saline); 97 % of control (dose: 50.0 mg/kg/injection, schedule: Q01DX009 (ip), vehicle: suspension in saline).
With `CC(Cl)S(N)(=O)=O` (stereo not given), the T/C by setting is: under setting [8], 105 % of control; under setting [9], 98 % of control; (dose: 200.0 mg/kg/injection, schedule: Q01DX005 (ip), vehicle: saline) 105 % of control.
As for `NC(N)=NS(=O)(=O)c1ccccc1[N+](=O)[O-]`, the T/C was 106 % of control (dose: 7.5 mg/kg/injection, schedule: Q01DX009 (ip), vehicle: saline with Tween-80); 113 % of control (dose: 15.0 mg/kg/injection, schedule: Q01DX009 (ip), vehicle: saline with Tween-80); 120 % of control (dose: 30.0 mg/kg/injection, schedule: Q01DX009 (ip), vehicle: saline with Tween-80).
On to `c1ccc2c(-c3ccc(N4CCOCC4)cc3)c3ccc4ccccc4c3cc2c1`, for which the T/C (dose: 50.0 mg/kg/injection, schedule: Q01DX005 (ip), vehicle: Klucel (hydroxypropylcellulose) (HPC)) is 91 % of control; the T/C (dose: 100.0 mg/kg/injection, schedule: Q01DX005 (ip), vehicle: Klucel (hydroxypropylcellulose) (HPC)) was 92 % of control; the T/C (dose: 200.0 mg/kg/injection, schedule: Q01DX005 (ip), vehicle: Klucel (hydroxypropylcellulose) (HPC)) was 99 % of control.
Consider `COC(=O)/C(=C1/OC(=O)C(c2ccc(OC(C)=O)cc2)=C1O)c1ccc(Cl)cc1`, for which the T/C is 111 % of control (dose: 50.0 mg/kg/injection, schedule: Q01DX009 (ip), vehicle: saline + Tween-80 + alcohol) and 115 % of control (dose: 100.0 mg/kg/injection, schedule: Q01DX009 (ip), vehicle: saline + Tween-80 + alcohol).
With `O=C1NC(CN2CCC(O)CC2)C(=O)NC1CN1CCC(O)CC1` (stereo not given), the T/C reads like this: under setting [1], 100 % of control; under setting [2], 100 % of control; under setting [4], 98 % of control; (dose: 200.0 mg/kg/injection, schedule: Q01DX009 (ip), vehicle: saline) 97 % of control.
As for `O=C(O)CC(=O)O.[NH-]C1CCCC1[NH-].[Pt+2]`, the T/C is 114 % of control (dose: 6.25 mg/kg/injection, schedule: Q04DX002 (ip), vehicle: saline); 169 % of control (dose: 50.0 mg/kg/injection, schedule: Q04DX002 (ip), vehicle: saline with Tween-80); 185 % of control (dose: 100.0 mg/kg/injection, schedule: Q04DX002 (ip), vehicle: saline with Tween-80); 197 % of control (dose: 200.0 mg/kg/injection, schedule: Q04DX002 (ip), vehicle: saline with Tween-80).
